# Assay results from patent US7425579B2, “Methods for inhibiting activity of polyamine transporters” (Universite Laval, priority 1998, dated 2008).
# Experiments:
# [1] = system: MDA-MB-231 human breast cancer xenograft; test: MDA-MB-231 human breast cancer xenograft in nude mice; type: in vivo, immunodeficient CD-1 mice
# Description: In particular, the mice have been treated with the following compounds: BNSD-X (1% w/v) (●), 0.3 (w/v) DFMO (□), 0.3% DFMO+BNSD-X (▪), 1% (w/v) DFMO (Δ), or 1% DFMO+BNSD-X (▴). Drugs were dissolved in drinking water which was given ad libitum to the animals. Control mice (∘) received distilled water only;
# In particular, the mice have been treated with the following compounds: BNSD-X (1% w/v) (●), 0.3 (w/v) DFMO (□), 0.3% DFMO+BNSD-X (▪), 1% (w/v) DFMO (Δ), or 1% DFMO+BNSD-X (▴). Drugs were dissolved in drinking water which was given ad libitum to the animals. Control mice (∘) received distilled water only; and
# In particular, these compounds are BNSD-X (1% w/v), 0.3 (w/v) DFMO, 0.3% DFMO+BNSD-X, 1% (w/v) DFMO, or 1% DFMO+BNSD-X Drugs were dissolved in drinking water which was given ad libitum to the animals. Control mice received distilled water only.
# For human xenograft experiments, athymic CD-1 mice were inoculated with 5×10^6 MDA-MB-231 human breast cancer cells (grown in tissue culture incubators to mid-exponential phase) in both sides of the inguinal mammary fat pad. After ˜2 weeks, when the tumor had reached a diameter ˜4 mm (as measured with a caliper), control mice were paired to treated ones in accordance with tumor volume (time zero). Animals were allowed free access to water containing 0, 0.3 or 1% DFMO (w/v), plus or minus 1% (w/v) BNSD-X (7 mice/experimental group). Tumor volume (V) was measured twice weekly with a caliper in 2 dimensions using the approximation V=(L×w^2)/2, where L is the length and w is the width of the xenograft (Bandyopadhyay et al., (2002) Cancer Res. 62:4690-4695). Animals were sacrificed after 39 d (i.e. when tumor size in control mice had reached about 500 mm^3). Mammary tumors were be excised and weighed.
# The efficacy of BNSD-X as a chemotherapeutic agent was assessed in the MDA-MB-231 model of human breast cancer xenograft in the nude mouse, a model which is known to be sensitive to polyamine depletion by DFMO (Weeks et al., (2000) Exp Cell Res. 261:293-302). For that purpose, MDA-MB-231 cells were injected in the left and right mammary fat pads of immunodeficient CD-1 mice. Mice were then allowed to drink either BNSD-X at the optimal concentration (1%, w/v), as well as DFMO at either 0.3% or 1% (w/v) plus or minus 1% BNSD-X for 39 days before sacrificing the animals and measuring total final tumor mass (FIG. 12-14). The BNSD-X solution alone or with 0.3% DFMO led to a slight (˜7%) reduction of body weight, which was attenuated by the addition of 1% DFMO (FIG. 13) However, this effect of body weight could largely be accounted on the decreased tumor burden in the BNSD-X treated animals (FIG. 14). […]
# T-47D cells = test: Reversal of DFMO-induced cytostasis by exogenous spermidine in T-47D cells; type: cell-based, human; conditions: 50 μM BNSD-X (167-fold excess over 0.3 μM spermidine); 2 mM DFMO
# Description: FIGS. 6A, 6B, 6C and 6D are graph showing that antagonism of DFMO-induced cytostasis by exogenous spermidine depends on the polyamine and linker structure of the compounds used in a method according to a preferred embodiment of the invention. In particular, T-47D cells were grown for 8-9 d with the indicated concentrations of spermidine in medium containing 1 mM aminoguanidine, in the presence of DFMO (●), transport inhibitor (□), DFMO plus transport inhibitor (▪), or in the absence of either agent (∘), and total DNA content per culture was then determined. Panels A, B, C, and D describe the effect of BNSD-X, BSD-X, BNSD-3 and BSD-3, respectively. Data are presented as the mean±SD for triplicate cultures from one out of at least two identical experiments;
# FIGS. 8A and 8B are graphs representing the time course of the effect of a compound used in a method according to a preferred embodiment of the invention on rescue of DFMO-induced cytostasis by exogenous spermidine. In particular, at time zero, T-47D (panel A) or CHO-K1 (panel B) were seeded at 1×10^4 or 5×10^3 cells/well, respectively, in medium containing 1 mM aminoguanidine, plus either 0.3 μM spermidine (Spd, ●), 2 mM DFMO (□), Spd+DFMO (▪), 50 μM (A) or 100 μM (B) BNSD-X (Δ), BNSD-X+Spd (▴), BNSD-X+DFMO (□), BNSD-X+Spd+DFMO (▾), or vehicle only (∘). At the indicated time, total DNA content/well was determined. Data are presented as the mean±SD for triplicate cultures from one representative experiment;
# To determine the ability of polyamine transport antagonists to potentiate DFMO-induced inhibition of cell proliferation in the presence of exogenous polyamines, cells were grown for the indicated period in growth medium supplemented with 1 mM aminoguanidine, and either DFMO (1 to 5 mM), the indicated transport inhibitor (50 or 100 μM), or the combination thereof, as well as increasing concentrations of spermidine (0.1 to 300 μM). Fresh medium was added every other day, and cell mass was determined at various time points during the period of exponential growth, or at the end of the experimental period. For the latter experiments, the FBS supplement was replaced with dextran-coated charcoal-treated FBS (5%, v/v) plus 0.5 μg/ml insulin in the case of T-47D, ZR-75-1 and MCF-7 cells (U.S. Pat. No. 6,083,496).
smiles,measurement,setting,value
"NCCCN(CCCN)Cc1ccc(CN(CCCN)CCCN)cc1 [28a, N,N,N′,N′-tetrakis-(3-aminopropyl)-p-diaminoxylene]",reduction of body weight,[1]; 1% (w/v) BNSD-X alone in drinking water,~7%
same,decrease of total tumor mass,"[1]; 1% (w/v) BNSD-X as a single agent, 39-d treatment",65±10%
same,"effect on growth inhibition by DFMO, T-47D",T-47D cells,did not markedly increase the extent of growth inhibition observed with DFMO alone
